Source: PubChem BioAssay AID328 (DTP/NCI, 2004)
Where “and” joins values, the source holds several entries; their conditions need not be identical. Identical values can stand only once. Inconclusive results and toxic doses are left out. Rule for the calls: active = survival T/C of 150% or more; inactive = T/C below 125% in these data.

Tested on: BDF1 mice, P388 leukemia ip, median survival T/C
Assay: NCI In Vivo Anticancer Drug Screen. Data for tumor model P388 Leukemia (intraperitoneal) in B6D2F1 (BDF1) mice
Conditions: endpoint: median survival time, higher = longer survival
In short: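 Compound-treated tumour-bearing mice were compared with vehicle-treated controls. Survival was recorded, and the value is the treated-group measurement divided by the control-group measurement (T/C).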

[1] = dose: 100.0 mg/kg/injection, schedule: Q01DX009 (ip), vehicle: Klucel (hydroxypropylcellulose) (HPC)
[2] = dose: 100.0 mg/kg/injection, schedule: Q04DX003 (ip), vehicle: Klucel (hydroxypropylcellulose) (HPC)
[3] = dose: 200.0 mg/kg/injection, schedule: Q01DX009 (ip), vehicle: Klucel (hydroxypropylcellulose) (HPC)
[4] = dose: 100.0 mg/kg/injection, schedule: Q01DX009 (ip), vehicle: saline with Tween-80
[5] = dose: 100.0 mg/kg/injection, schedule: Q04DX003 (ip), vehicle: saline with Tween-80
[6] = dose: 50.0 mg/kg/injection, schedule: Q01DX009 (ip), vehicle: saline with Tween-80

Measured: T/C

C[C@]12CCC(=O)C=C1CC[C@@H]1[C@@H]2C(=O)C[C@@]2(C)[C@H]1CC[C@]2(O)C(=O)CO
inactive: [1] 108 % of control | [2] 110 % of control | [3] 108 % of control | dose: 200.0 mg/kg/injection, schedule: Q04DX003 (ip), vehicle: Klucel (hydroxypropylcellulose) (HPC) 115 % of control | dose: 400.0 mg/kg/injection, schedule: Q01DX009 (ip), vehicle: Klucel (hydroxypropylcellulose) (HPC) 87 % of control | dose: 400.0 mg/kg/injection, schedule: Q04DX003 (ip), vehicle: Klucel (hydroxypropylcellulose) (HPC) 110 % of control

COc1cc(C2c3cc4c(cc3C(O)C(CO)C2CO)OCO4)cc(OC)c1OC (configuration not stated)
active: dose: 17.5 mg/kg/injection, schedule: Q01DX009 (ip), vehicle: Klucel (hydroxypropylcellulose) (HPC) 176 % of control | dose: 35.0 mg/kg/injection, schedule: Q01DX009 (ip), vehicle: Klucel (hydroxypropylcellulose) (HPC) 209 % of control | dose: 44.0 mg/kg/injection, schedule: Q01DX009 (ip), vehicle: saline with Tween-80 150 % of control | dose: 66.0 mg/kg/injection, schedule: Q01DX009 (ip), vehicle: saline with Tween-80 150 % of control | dose: 70.0 mg/kg/injection, schedule: Q01DX009 (ip), vehicle: Klucel (hydroxypropylcellulose) (HPC) 228 % of control and 159 % of control | [4] 209 % of control | [5] 160 % of control and 183 % of control | dose: 140.0 mg/kg/injection, schedule: Q01DX009 (ip), vehicle: Klucel (hydroxypropylcellulose) (HPC) 172 % of control | dose: 150.0 mg/kg/injection, schedule: Q01DX009 (ip), vehicle: saline with Tween-80 159 % of control | dose: 150.0 mg/kg/injection, schedule: Q04DX003 (ip), vehicle: saline with Tween-80 160 % of control | dose: 200.0 mg/kg/injection, schedule: Q04DX003 (ip), vehicle: saline with Tween-80 172 % of control and 191 % of control | dose: 225.0 mg/kg/injection, schedule: Q04DX003 (ip), vehicle: saline with Tween-80 190 % of control | dose: 300.0 mg/kg/injection, schedule: Q04DX003 (ip), vehicle: saline sonified 200 % of control | dose: 400.0 mg/kg/injection, schedule: Q04DX003 (ip), vehicle: saline with Tween-80 200 % of control and 204 % of control
inactive: dose: 37.5 mg/kg/injection, schedule: Q04DX003 (ip), vehicle: saline sonified 109 % of control | dose: 44.0 mg/kg/injection, schedule: Q04DX003 (ip), vehicle: saline sonified 100 % of control | dose: 66.0 mg/kg/injection, schedule: Q04DX003 (ip), vehicle: saline sonified 105 % of control | dose: 75.0 mg/kg/injection, schedule: Q04DX003 (ip), vehicle: saline sonified 122 % of control | dose: 100.0 mg/kg/injection, schedule: Q04DX003 (ip), vehicle: saline sonified 110 % of control | dose: 150.0 mg/kg/injection, schedule: Q04DX003 (ip), vehicle: saline sonified 110 % of control

C#CC1(O)CCC2C3CCc4cc(OC)ccc4C3CCC21C (configuration not stated)
inactive: dose: 40.0 mg/kg/injection, schedule: Q01DX009 (sc), vehicle: saline with Tween-80 100 % of control | dose: 80.0 mg/kg/injection, schedule: Q01DX009 (sc), vehicle: saline with Tween-80 100 % of control | dose: 100.0 mg/kg/injection, schedule: Q04DX003 (sc), vehicle: saline with Tween-80 88 % of control | dose: 160.0 mg/kg/injection, schedule: Q01DX009 (sc), vehicle: saline with Tween-80 100 % of control | dose: 200.0 mg/kg/injection, schedule: Q04DX003 (sc), vehicle: saline with Tween-80 94 % of control | dose: 400.0 mg/kg/injection, schedule: Q04DX003 (sc), vehicle: saline with Tween-80 88 % of control

Clc1cccc(NC2=NCCN=C(Nc3cccc(Cl)c3Cl)SS2)c1Cl
inactive: [6] 102 % of control | [4] 100 % of control | dose: 200.0 mg/kg/injection, schedule: Q01DX009 (ip), vehicle: saline with Tween-80 96 % of control

CN1CCC2=C(C1)C(c1ccccc1)c1ccccc12 (configuration not stated)
inactive: dose: 25.0 mg/kg/injection, schedule: Q01DX009 (ip), vehicle: saline 106 % of control

CC(=O)Nc1ccc(NC(=O)c2ccc([As](O)O)cc2)cc1
active: [3] 170 % of control | dose: 265.0 mg/kg/injection, schedule: Q01DX009 (ip), vehicle: Klucel (hydroxypropylcellulose) (HPC) 159 % of control
inactive: dose: 29.0 mg/kg/injection, schedule: Q04DX003 (ip), vehicle: Klucel (hydroxypropylcellulose) (HPC) 109 % of control | dose: 45.0 mg/kg/injection, schedule: Q01DX009 (ip), vehicle: saline 102 % of control | dose: 45.0 mg/kg/injection, schedule: Q04DX003 (ip), vehicle: Klucel (hydroxypropylcellulose) (HPC) 113 % of control | dose: 65.0 mg/kg/injection, schedule: Q01DX009 (ip), vehicle: saline 116 % of control

CCOCCc1ccccn1
inactive: dose: 100.0 mg/kg/injection, schedule: Q01DX009 (ip), vehicle: saline 100 % of control | dose: 200.0 mg/kg/injection, schedule: Q01DX009 (ip), vehicle: saline 104 % of control | dose: 400.0 mg/kg/injection, schedule: Q01DX009 (ip), vehicle: saline 122 % of control

CCOC(=O)C(C)[P+](c1ccccc1)(c1ccccc1)c1ccccc1 (configuration not stated)
inactive: dose: 1.0 mg/kg/injection, schedule: Q01DX009 (ip), vehicle: saline 115 % of control | dose: 1.5 mg/kg/injection, schedule: Q01DX009 (ip), vehicle: saline 103 % of control | dose: 1.5 mg/kg/injection, schedule: Q04DX003 (ip), vehicle: saline 90 % of control | dose: 2.25 mg/kg/injection, schedule: Q01DX009 (ip), vehicle: saline 100 % of control | dose: 3.0 mg/kg/injection, schedule: Q01DX009 (ip), vehicle: saline 118 % of control | dose: 3.0 mg/kg/injection, schedule: Q04DX003 (ip), vehicle: saline 104 % of control | dose: 6.0 mg/kg/injection, schedule: Q04DX003 (ip), vehicle: saline 90 % of control

Cc1c2cnccc2c(C)c2c1c1ccccc1n2CC1CO1 (configuration not stated)
active: dose: 9.37 mg/kg/injection, schedule: Q01DX009 (ip), vehicle: Klucel (hydroxypropylcellulose) (HPC) 150 % of control | dose: 11.0 mg/kg/injection, schedule: Q01DX009 (ip), vehicle: saline with Tween-80 168 % of control | dose: 16.5 mg/kg/injection, schedule: Q01DX009 (ip), vehicle: saline with Tween-80 176 % of control
inactive: dose: 25.0 mg/kg/injection, schedule: Q01DX009 (ip), vehicle: saline with Tween-80 106 % of control | dose: 37.5 mg/kg/injection, schedule: Q01DX009 (ip), vehicle: saline with Tween-80 95 % of control

c1nc(SSc2ncnc3nc[nH]c23)c2[nH]cnc2n1
inactive: dose: 3.7 mg/kg/injection, schedule: Q04DX003 (ip), vehicle: saline 87 % of control | dose: 7.5 mg/kg/injection, schedule: Q04DX003 (ip), vehicle: saline 91 % of control | dose: 25.0 mg/kg/injection, schedule: Q04DX003 (ip), vehicle: saline with Tween-80 100 % of control | dose: 50.0 mg/kg/injection, schedule: Q04DX003 (ip), vehicle: saline 120 % of control | [5] 111 % of control | dose: 100.0 mg/kg/injection, schedule: Q04DX003 (ip), vehicle: saline 87 % of control | dose: 150.0 mg/kg/injection, schedule: Q04DX003 (ip), vehicle: saline 90 % of control | dose: 225.0 mg/kg/injection, schedule: Q04DX003 (ip), vehicle: saline 90 % of control | dose: 335.0 mg/kg/injection, schedule: Q04DX003 (ip), vehicle: saline 90 % of control

Cc1c(/C=C(\C#N)c2ccc([N+](=O)[O-])cc2)c(=O)n(-c2ccccc2)n1C
inactive: dose: 100.0 mg/kg/injection, schedule: Q04DX003 (ip), vehicle: gum acacia 103 % of control | dose: 200.0 mg/kg/injection, schedule: Q04DX003 (ip), vehicle: gum acacia 100 % of control | dose: 400.0 mg/kg/injection, schedule: Q04DX003 (ip), vehicle: gum acacia 100 % of control

O=C(OC(=O)c1cccc(-c2ccccc2)c1)c1cccc(-c2ccccc2)c1
inactive: dose: 50.0 mg/kg/injection, schedule: Q01DX009 (ip), vehicle: Klucel (hydroxypropylcellulose) (HPC) 104 % of control | [1] 95 % of control | [3] 95 % of control

[O-]c1c(Cl)c(Cl)c(O[P+](c2ccccc2)(c2ccccc2)c2ccccc2)c(Cl)c1Cl
inactive: dose: 6.25 mg/kg/injection, schedule: Q01DX009 (ip), vehicle: saline 116 % of control | dose: 12.5 mg/kg/injection, schedule: Q01DX009 (ip), vehicle: saline 122 % of control

COC(=O)c1cc(=O)n(-c2ccccc2F)c(SC)n1
inactive: [2] 116 % of control

COc1ccc(Cl)cc1N
inactive: [6] 95 % of control | [4] 91 % of control
